Patent US20060069123A1, “Substituted dipiperidine CCR2 antagonists” (priority 2004, published 2006)
Like-named read-outs stand apart in the source and are kept apart here.

Experiments:
[1] = test system: THP-1 cells; assay: MCP-1 Induced Chemotaxis in THP-1 Cells; type: cell-based; settings: Homo sapiens; THP-1 cells, MCP-1 0.01 μg/mL, 3 hours; read-out: Inhibition of MCP-1 Induced Chemotaxis IC50
[2] = target: T1, CCR2 (Homo sapiens, UniProt P41597)
T1 sequence (P41597 1-360 isoform P41597-2): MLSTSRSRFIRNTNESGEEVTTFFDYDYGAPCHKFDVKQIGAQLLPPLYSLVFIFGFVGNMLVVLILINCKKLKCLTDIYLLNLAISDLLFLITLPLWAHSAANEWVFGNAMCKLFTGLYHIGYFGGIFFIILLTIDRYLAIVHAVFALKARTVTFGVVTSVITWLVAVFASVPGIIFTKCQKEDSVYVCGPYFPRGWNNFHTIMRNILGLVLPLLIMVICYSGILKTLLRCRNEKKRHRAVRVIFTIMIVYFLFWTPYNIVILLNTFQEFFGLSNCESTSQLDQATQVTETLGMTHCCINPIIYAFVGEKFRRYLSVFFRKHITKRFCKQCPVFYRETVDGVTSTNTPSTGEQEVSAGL

[3] = test system: THP-1 cells; settings: Homo sapiens; for IC50: THP-1, read-out: Inhibition of MCP-1 Induced Calcium Ion Influx IC50

IC50 [1] [nM]	IC50 [2] [nM]	IC50 [3] [nM]	SMILES	inhibition at 25 µM ([3]; THP-1, read-out: Inhibition of MCP-1 Induced Calcium Ion Influx, percent inhibition) [%]
340	840	4600	O=C(/C=C/c1ccc(Cl)c(Cl)c1)N1CCC(C(CO)N2CCC(c3ccncc3)CC2)CC1 (stereo not drawn) [Cpd 185, (2E)-3-(3,4-dichloro-phenyl)-1-{4-[2-hydroxy-1-(3,4,5,6-tetrahydro-2H-[4,4′]bipyridinyl-1-yl)-ethyl]-piperidin-1-yl}-propenone]	
230	250	970	O=C(O)C(C1CCN(C(=O)Nc2cccc(C(F)(F)F)c2)CC1)N1CCC(c2c[nH]c3ccccc23)CC1 (stereo not drawn) [Cpd 97, [4-(1H-indol-3-yl)-piperidin-1-yl]-[1-(3-trifluoromethyl-phenylcarbamoyl)-piperidin-4-yl]-acetic acid]	
90	70	2610	O=C(/C=C/c1ccc(Cl)c(Cl)c1)N1CCC(C(CO)N2CCC(c3nc4ccccc4[nH]3)CC2)CC1 (stereo not drawn) [Cpd 176, (2E)-1-(4-{1-[4-(1H-benzoimidazol-2-yl)-piperidin-1-yl]-2-hydroxy-ethyl}-piperidin-1-yl)-3-(3,4-dichloro-phenyl)-propenone]	
20	20	30	CC(=O)OCC(C1CCN(C(=O)/C=C/c2cc(F)c(F)c(F)c2)CC1)N1CCC(c2c[nH]c3ccccc23)CC1 (stereo not drawn) [Cpd 236, acetic acid 2-[4-(1H-indol-3-yl)-piperidin-1-yl]-2-{1-[(2E)-3-(3,4,5-trifluoro-phenyl)-acryloyl]-piperidin-4-yl}-ethyl ester]	
500	50	1300	CSc1cccc(NC(=O)N2CCC(C(C(=O)O)N3CCC(c4c[nH]c5ccccc45)CC3)CC2)c1 (stereo not drawn) [Cpd 144, [4-(1H-indol-3-yl)-piperidin-1-yl]-[1-(3-methylsulfanyl-phenylcarbamoyl)-piperidin-4-yl]-acetic acid]	
50	20	40	COc1ccc(C2CCN(C(CO)C3CCN(C(=O)/C=C/c4ccc(Cl)c(Cl)c4)CC3)CC2)cc1 (stereo not drawn) [Cpd 139, (2E)-3-(3,4-dichloro-phenyl)-1-(4-{2-hydroxy-1-[4-(4-methoxy-phenyl)-piperidin-1-yl]-ethyl}-piperidin-1-yl)-propenone]	
150	100	170	Nc1ccc2[nH]cc(C3CCN(C(CO)C4CCN(C(=O)/C=C/c5cc(F)c(F)c(F)c5)CC4)CC3)c2n1 (stereo not drawn) [Cpd 191, (2E)-1-(4-{1-[4-(5-amino-1H-pyrrolo[3,2-b]pyridin-3-yl)-piperidin-1-yl]-2-hydroxy-ethyl}-piperidin-1-yl)-3-(3,4,5-trifluoro-phenyl)-propenone]	
400	470	9250	O=C(/C=C/c1cc(F)c(F)c(F)c1)N1CCC(C(CO)N2CCC(c3ccncc3)CC2)CC1 (stereo not drawn) [Cpd 183, (2E)-1-{4-[2-hydroxy-1-(3,4,5,6-tetrahydro-2H-[4,4′]bipyridinyl-1-yl)-ethyl]-piperidin-1-yl}-3-(3,4,5-trifluoro-phenyl)-propenone]	
53	7	50	COC(=O)c1ccc2[nH]cc(C3CCN(C(C(=O)O)C4CCN(C(=O)/C=C/c5cc(F)c(F)c(F)c5)CC4)CC3)c2c1 (stereo not drawn) [Cpd 146, 3-[1-(carboxy-{1-[(2E)-3-(3,4,5-trifluoro-phenyl)-acryloyl]-piperidin-4-yl}-methyl)-piperidin-4-yl]-1H-indole-5-carboxylic acid methyl ester]	
30	32	20	O=C(/C=C/c1ccc(F)c(Br)c1)N1CCC(C(CO)N2CCC(c3c[nH]c4ccc(F)cc34)CC2)CC1 (stereo not drawn) [Cpd 172, (2E)-3-(3-bromo-4-fluoro-phenyl)-1-(4-{1-[4-(5-fluoro-1H-indol-3-yl)-piperidin-1-yl]-2-hydroxy-ethyl}-piperidin-1-yl)-propenone]	
770	940	7100	Cc1cc(C)cc(NC(=O)N2CCC(C(C(=O)O)N3CCC(c4c[nH]c5ccccc45)CC3)CC2)c1 (stereo not drawn) [Cpd 135, [1-(3,5-dimethyl-phenylcarbamoyl)-piperidin-4-yl]-[4-(1H-indol-3-yl)-piperidin-1-yl]-acetic acid]	
110	215	70	CC(=O)OCC(C1CCN(C(=O)/C=C/c2ccc(Cl)c(Cl)c2)CC1)N1CCC(c2c[nH]c3ccccc23)CC1 (stereo not drawn) [Cpd 237, acetic acid 2-{1-[(2E)-3-(3,4-dichloro-phenyl)-acryloyl]-piperidin-4-yl}-2-[4-(1H-indol-3-yl)-piperidin-1-yl]-ethyl ester]	

More lines, now with the values behind:

SMILES	IC50 [1] [nM]	IC50 [2] [nM]	IC50 [3] [nM]	inhibition at 25 µM ([3]; THP-1, read-out: Inhibition of MCP-1 Induced Calcium Ion Influx, percent inhibition) [%]
COc1ccc(C2CCN(C(CO)C3CCN(C(=O)/C=C/c4cc(F)cc(F)c4)CC3)CC2)cc1 (stereo not drawn) [Cpd 137, (2E)-3-(3,5-difluoro-phenyl)-1-(4-{2-hydroxy-1-[4-(4-methoxy-phenyl)-piperidin-1-yl]-ethyl}-piperidin-1-yl)-propenone]	80	30	210	
O=C(/C=C/c1cc(F)c(F)c(F)c1)N1CCC([C@H](CO)N2CCC(c3c[nH]c4ccccc34)CC2)CC1 [Cpd 188, (2E)-1-(4-{(1R)-2-hydroxy-1-[4-(1H-indol-3-yl)-piperidin-1-yl]-ethyl}-piperidin-1-yl)-3-(3,4,5-trifluoro-phenyl)-propenone]	20	29.5	10	
Cc1ccc(NC(=O)N2CCC(C(C(=O)O)N3CCC(c4c[nH]c5ccccc45)CC3)CC2)cc1F (stereo not drawn) [Cpd 105, [1-(3-fluoro-4-methyl-phenylcarbamoyl)-piperidin-4-yl]-[4-(1H-indol-3-yl)-piperidin-1-yl]-acetic acid]	10	90	130	
CC(=O)NCC(C1CCN(C(=O)/C=C/c2cc(F)cc(F)c2)CC1)N1CCC(c2c[nH]c3ccccc23)CC1 (stereo not drawn) [Cpd 214, N-{2-{1-[(2E)-3-(3,5-difluoro-phenyl)-acryloyl]-piperidin-4-yl}-2-[4-(1H-indol-3-yl)-piperidin-1-yl]-ethyl}-acetamide]	190	70	180	
O=C(/C=C/c1cc(F)c(F)c(F)c1)N1CCC(C(CO)N2CCC(c3ccc4c(c3)OCO4)CC2)CC1 (stereo not drawn) [Cpd 189, (2E)-1-{4-[1-(4-benzo[1,3]dioxol-5-yl-piperidin-1-yl)-2-hydroxy-ethyl]-piperidin-1-yl}-3-(3,4,5-trifluoro-phenyl)-propenone]	720	170	160	
O=C(/C=C/c1ccc(F)cc1)N1CCC(C(CO)N2CCC(c3c[nH]c4ccc(F)cc34)CC2)CC1 (stereo not drawn) [Cpd 169, (2E)-1-(4-{1-[4-(5-fluoro-1H-indol-3-yl)-piperidin-1-yl]-2-hydroxy-ethyl}-piperidin-1-yl)-3-(4-fluoro-phenyl)-propenone]	55	57	170	
O=C(/C=C/c1cc(F)c(F)c(F)c1)N1CCC(C(CO)N2CCC(c3cc[nH]n3)CC2)CC1 (stereo not drawn) [Cpd 156, (2E)-1-(4-{2-hydroxy-1-[4-(1H-pyrazol-3-yl)-piperidin-1-yl]-ethyl}-piperidin-1-yl)-3-(3,4,5-trifluoro-phenyl)-propenone]	120	80		50
COc1ccc(C2CCN(C(CO)C3CCN(C(=O)/C=C/c4ccc(F)c(Br)c4)CC3)CC2)cc1 (stereo not drawn) [Cpd 161, (2E)-3-(3-bromo-4-fluoro-phenyl)-1-(4-{2-hydroxy-1-[4-(4-methoxy-phenyl)-piperidin-1-yl]-ethyl}-piperidin-1-yl)-propenone]	90	50	180	
CSc1ccc(NC(=O)N2CCC(C(C(=O)O)N3CCC(c4c[nH]c5ccccc45)CC3)CC2)cc1 (stereo not drawn) [Cpd 127, [4-(1H-indol-3-yl)-piperidin-1-yl]-[1-(4-methylsulfanyl-phenylcarbamoyl)-piperidin-4-yl]-acetic acid]	750	760	820	
COc1ccc(C2CCN([C@@H](CO)C3CCN(C(=O)/C=C/c4cc(F)cc(F)c4)CC3)CC2)cc1 [Cpd 181, (2E)-3-(3,5-difluoro-phenyl)-1-(4-{(1R)-2-hydroxy-1-[4-(4-methoxy-phenyl)-piperidin-1-yl]-ethyl}-1-piperidin-1-yl)-propenone]	70	40	160	
O=C(/C=C/c1ccc(Cl)c(Cl)c1)N1CCC(C(CO)N2CCC(c3c[nH]c4ccccc34)CC2)CC1 (stereo not drawn) [Cpd 121, (2E)-3-(3,4-dichloro-phenyl)-1-(4-{2-hydroxy-1-[4-(1H-indol-3-yl)-piperidin-1-yl]-ethyl}-piperidin-1-yl)-propenone]	12	0.2	0.1	
O=C(O)c1ccc2[nH]cc(C3CCN(C(C(=O)O)C4CCN(C(=O)/C=C/c5cc(F)c(F)c(F)c5)CC4)CC3)c2c1 (stereo not drawn) [Cpd 147, 3-[1-(carboxy-{1-[(2E)-3-(3,4,5-trifluoro-phenyl)-acryloyl]-piperidin-4-yl}-methyl)-piperidin-4-yl]-1H-indole-5-carboxylic acid]	40	150	600	
O=C(C=Cc1ccc(F)c(F)c1)N1CCC(C(CO)N2CCC(c3c[nH]c4ccc(F)cc34)CC2)CC1 (stereo not drawn) [Cpd 254, (2E)-3-(3,4-difluoro-phenyl)-1-(4-{1-[4-(5-fluoro-1H-indol-3-yl)-piperidin-1-yl]-2-hydroxy-ethyl}-piperidin-1-yl)-propenone]	20	120	30	
